{"source": "patent US20250169501A1", "about": "“Metal(loid)-Based Compositions and Uses Thereof Against Bacterial Biofilms” (CCREST Laboratories Inc., priority 2022, published 2025)"}
{"test_system": "P. aeruginosa biofilm", "assay": "not given", "format": "cell-based, Pseudomonas aeruginosa", "conditions": "not given", "units": {"Inhibition of P. aeruginosa biofilm (MBIC)": "mM"}}
{"molecule": "O=S(=O)([O-])[O-].[Cu+2]", "note": "[Cu, copper sulfate]", "Inhibition of P. aeruginosa biofilm (MBIC)": 8}
{"test_system": "P. aeruginosa biofilm", "assay": "not given", "format": "cell-based, Pseudomonas aeruginosa", "conditions": "LB; in 48 h", "units": {"Inhibition of P. aeruginosa biofilm (MBIC)": "mM"}}
{"molecule": "O=[N+]([O-])[O-].[Ag+]", "note": "[Ag, silver nitrate]", "Inhibition of P. aeruginosa biofilm (MBIC)": 0.125}
{"molecule": "[Au+3].[Cl-].[Cl-].[Cl-].[Cl-]", "note": "[Au, tetrachloroaurate]", "Inhibition of P. aeruginosa biofilm (MBIC)": 0.5}
{"molecule": "O=[N+]([O-])[O-].O=[N+]([O-])[O-].O=[N+]([O-])[O-].[Ga+3]", "note": "[Ga, gallium nitrate]", "Inhibition of P. aeruginosa biofilm (MBIC)": 12.5}
{"molecule": "O=[Se](O)O", "note": "[Se, sodium selenite]", "Inhibition of P. aeruginosa biofilm (MBIC)": ">50"}
{"molecule": "O=[Te]([O-])[O-].[K+].[K+]", "note": "[Te, potassium tellurite]", "Inhibition of P. aeruginosa biofilm (MBIC)": 0.5}
{"test_system": "P. aeruginosa biofilm", "assay": "not given", "format": "cell-based, Pseudomonas aeruginosa", "conditions": "MHB; in 48 h", "units": {"Inhibition of P. aeruginosa biofilm (MBIC)": "mM"}}
{"molecule": "O=[N+]([O-])[O-].[Ag+]", "note": "[Ag, silver nitrate]", "Inhibition of P. aeruginosa biofilm (MBIC)": 0.03}
{"molecule": "[Au+3].[Cl-].[Cl-].[Cl-].[Cl-]", "note": "[Au, tetrachloroaurate]", "Inhibition of P. aeruginosa biofilm (MBIC)": 0.25}
{"molecule": "O=[N+]([O-])[O-].O=[N+]([O-])[O-].O=[N+]([O-])[O-].[Ga+3]", "note": "[Ga, gallium nitrate]", "Inhibition of P. aeruginosa biofilm (MBIC)": 12.5}
{"molecule": "O=[Se](O)O", "note": "[Se, sodium selenite]", "Inhibition of P. aeruginosa biofilm (MBIC)": ">50"}
{"molecule": "O=[Te]([O-])[O-].[K+].[K+]", "note": "[Te, potassium tellurite]", "Inhibition of P. aeruginosa biofilm (MBIC)": 0.5}
{"test_system": "P. aeruginosa biofilm", "assay": "not given", "format": "cell-based, Pseudomonas aeruginosa", "conditions": "SWF; in 48 h", "units": {"Inhibition of P. aeruginosa biofilm (MBIC)": "mM"}}
{"molecule": "O=[N+]([O-])[O-].[Ag+]", "note": "[Ag, silver nitrate]", "Inhibition of P. aeruginosa biofilm (MBIC)": 0.25}
{"molecule": "[Au+3].[Cl-].[Cl-].[Cl-].[Cl-]", "note": "[Au, tetrachloroaurate]", "Inhibition of P. aeruginosa biofilm (MBIC)": 0.25}
{"molecule": "O=[N+]([O-])[O-].O=[N+]([O-])[O-].O=[N+]([O-])[O-].[Ga+3]", "note": "[Ga, gallium nitrate]", "Inhibition of P. aeruginosa biofilm (MBIC)": 25}
{"molecule": "O=[Se](O)O", "note": "[Se, sodium selenite]", "Inhibition of P. aeruginosa biofilm (MBIC)": ">50"}
{"molecule": "O=[Te]([O-])[O-].[K+].[K+]", "note": "[Te, potassium tellurite]", "Inhibition of P. aeruginosa biofilm (MBIC)": 0.5}
{"test_system": "P. aeruginosa biofilm", "assay": "not given", "format": "cell-based, Pseudomonas aeruginosa", "conditions": "not given", "remark": "another data set of the same source", "units": {"Eradication of P. aeruginosa biofilm (MBEC)": "mM"}}
{"molecule": "O=S(=O)([O-])[O-].[Cu+2]", "note": "[Cu, copper sulfate]", "Eradication of P. aeruginosa biofilm (MBEC)": 6.25}
{"test_system": "P. aeruginosa biofilm", "assay": "not given", "format": "cell-based, Pseudomonas aeruginosa", "conditions": "LB; in 24 h", "units": {"Eradication of P. aeruginosa biofilm (MBEC)": "mM"}}
{"molecule": "O=[N+]([O-])[O-].[Ag+]", "note": "[Ag, silver nitrate]", "Eradication of P. aeruginosa biofilm (MBEC)": 0.065}
{"molecule": "[Au+3].[Cl-].[Cl-].[Cl-].[Cl-]", "note": "[Au, tetrachloroaurate]", "Eradication of P. aeruginosa biofilm (MBEC)": 0.25}
{"molecule": "O=[N+]([O-])[O-].O=[N+]([O-])[O-].O=[N+]([O-])[O-].[Ga+3]", "note": "[Ga, gallium nitrate]", "Eradication of P. aeruginosa biofilm (MBEC)": 3}
{"molecule": "O=[Se](O)O", "note": "[Se, sodium selenite]", "Eradication of P. aeruginosa biofilm (MBEC)": ">50"}
{"molecule": "O=[Te]([O-])[O-].[K+].[K+]", "note": "[Te, potassium tellurite]", "Eradication of P. aeruginosa biofilm (MBEC)": 0.5}
{"test_system": "P. aeruginosa biofilm", "assay": "not given", "format": "cell-based, Pseudomonas aeruginosa", "conditions": "MHB; in 24 h", "units": {"Eradication of P. aeruginosa biofilm (MBEC)": "mM"}}
{"molecule": "O=[N+]([O-])[O-].[Ag+]", "note": "[Ag, silver nitrate]", "Eradication of P. aeruginosa biofilm (MBEC)": 0.03}
{"molecule": "[Au+3].[Cl-].[Cl-].[Cl-].[Cl-]", "note": "[Au, tetrachloroaurate]", "Eradication of P. aeruginosa biofilm (MBEC)": 0.25}
{"molecule": "O=[N+]([O-])[O-].O=[N+]([O-])[O-].O=[N+]([O-])[O-].[Ga+3]", "note": "[Ga, gallium nitrate]", "Eradication of P. aeruginosa biofilm (MBEC)": 3}
{"molecule": "O=[Se](O)O", "note": "[Se, sodium selenite]", "Eradication of P. aeruginosa biofilm (MBEC)": ">50"}
{"molecule": "O=[Te]([O-])[O-].[K+].[K+]", "note": "[Te, potassium tellurite]", "Eradication of P. aeruginosa biofilm (MBEC)": 0.5}
{"test_system": "P. aeruginosa biofilm", "assay": "not given", "format": "cell-based, Pseudomonas aeruginosa", "conditions": "SWF; in 24 h", "units": {"Eradication of P. aeruginosa biofilm (MBEC)": "mM"}}
{"molecule": "O=[N+]([O-])[O-].[Ag+]", "note": "[Ag, silver nitrate]", "Eradication of P. aeruginosa biofilm (MBEC)": 0.5}
{"molecule": "[Au+3].[Cl-].[Cl-].[Cl-].[Cl-]", "note": "[Au, tetrachloroaurate]", "Eradication of P. aeruginosa biofilm (MBEC)": 1}
{"molecule": "O=[N+]([O-])[O-].O=[N+]([O-])[O-].O=[N+]([O-])[O-].[Ga+3]", "note": "[Ga, gallium nitrate]", "Eradication of P. aeruginosa biofilm (MBEC)": 12.5}
{"molecule": "O=[Se](O)O", "note": "[Se, sodium selenite]", "Eradication of P. aeruginosa biofilm (MBEC)": ">50"}
{"molecule": "O=[Te]([O-])[O-].[K+].[K+]", "note": "[Te, potassium tellurite]", "Eradication of P. aeruginosa biofilm (MBEC)": 0.5}
{"test_system": "39 clinical isolates", "assay": "Antibiotic resistance of the clinical isolates", "format": "cell-based", "conditions": "out of 39 clinical isolates"}
{"molecule": "gentamicin", "clinical isolates resistant to the antibiotic": "15 (38%) isolates (%)"}
{"test_system": "P. aeruginosa", "assay": "not given", "format": "cell-based, Pseudomonas aeruginosa", "conditions": "SWF; read after 2, 4 and 24 hours", "text": "(§1) For the MBC and recovery potency of bacteria. […] The last well that had no bacterial growth was defined as the MBC."}
{"molecule": "O=[N+]([O-])[O-].[Ag+]", "note": "[Ag, silver nitrate]", "recovery of bacteria in the same fresh media after treatment": "couldn't inhibit the recovery of bacteria"}
{"molecule": "O=[Te]([O-])[O-].[K+].[K+]", "note": "[Te, potassium tellurite]", "recovery of bacteria in the same fresh media after treatment": "couldn't inhibit the recovery of bacteria"}
{"test_system": "P. aeruginosa", "assay": "not given", "format": "cell-based, Pseudomonas aeruginosa", "conditions": "SWF; vs combination", "text": "as §1"}
{"molecule": "O=[N+]([O-])[O-].[Ag+]", "note": "[Ag, silver nitrate]", "dilution in which bacteria recovered when agent used alone": "three-fold higher dilution"}
{"molecule": "O=[Te]([O-])[O-].[K+].[K+]", "note": "[Te, potassium tellurite]", "dilution in which bacteria recovered when agent used alone": "two-fold higher dilution"}
{"test_system": "P. aeruginosa PAO1", "assay": "In vitro resistance acquisition, serial passage", "format": "cell-based, Pseudomonas aeruginosa", "conditions": "SWF, sublethal (1/8 MIC) concentration, 7 days", "experimental": "Serial passage of growth as a screen for resistant P. aeruginosa PAO1 was carried out for 7 days in SWF supplemented with sublethal (1/8 dilution from the MIC) concentrations of Ag, Te, and Ag—Te mixture. […] Strains of P. aeruginosa PAO1 were grown in sublethal (1/8th MIC) concentrations of Ag, Te or a mixture of the two antimicrobials, for 7 days.\nThe impact of the MBAs on antibiotic resistance was also tested. Serial passage of growth as a screen for resistant P. aeruginosa PAO1 was performed for 7 days in SWF supplemented with sublethal (1/8 dilution from the MIC) concentrations of Ag, Te, and Ag—Te mixture."}
{"molecule": "O=[N+]([O-])[O-].[Ag+]", "note": "[Ag, silver nitrate]", "occurrence of resistance during serial passage": "after two days"}
{"molecule": "O=[Te]([O-])[O-].[K+].[K+]", "note": "[Te, potassium tellurite]", "occurrence of resistance during serial passage": "after five days"}
